System: 885724-159-R-J1-PDC complex spheroid viability
Experiment: Anticancer human tumor 885724-159-R-J1-PDC patient-derived pancreatic adenocarcinoma cell line growth inhibition [POLQ]
Conditions: for IC50: curve of first compound; for viability, T/C: stronger effect = lower value
In short: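 Patient-derived tumour cells were co-cultured with HUVEC and mesenchymal stem cells as multicellular spheroids at 37 °C. They were treated with POLQ inhibitors (novobiocin, ART-558, RP6685) alone or combined with other agents. Top concentrations were at or near clinical Cmax (otherwise 10 microM; SN-38 at 1 microM), decreasing in half-log steps.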

[1] = second compound 0.0316 µM, first compound 0.0316 µM
[2] = second compound 0.0316 µM, first compound 0.1 µM
[3] = second compound 0.0316 µM, first compound 0.316 µM
[4] = second compound 0.0316 µM, first compound 1 µM
[5] = second compound 0.0316 µM, first compound 3.16 µM
[6] = second compound 0.0316 µM, first compound 10 µM
[7] = second compound 0.1 µM, first compound 0.0316 µM
[8] = second compound 0.1 µM, first compound 0.1 µM
[9] = second compound 0.1 µM, first compound 0.316 µM
[10] = second compound 0.1 µM, first compound 1 µM
[11] = second compound 0.1 µM, first compound 3.16 µM
[12] = second compound 0.1 µM, first compound 10 µM
[13] = second compound 0.316 µM, first compound 0.0316 µM
[14] = second compound 0.316 µM, first compound 0.1 µM
[15] = second compound 0.316 µM, first compound 0.316 µM
[16] = second compound 0.316 µM, first compound 1 µM
[17] = second compound 0.316 µM, first compound 3.16 µM
[18] = second compound 0.316 µM, first compound 10 µM
[19] = second compound 1 µM, first compound 0.0316 µM
[20] = second compound 1 µM, first compound 0.1 µM
[21] = second compound 1 µM, first compound 0.316 µM
[22] = second compound 1 µM, first compound 1 µM
[23] = second compound 1 µM, first compound 3.16 µM
[24] = second compound 1 µM, first compound 10 µM
[25] = second compound 3.16 µM, first compound 0.0316 µM
[26] = second compound 3.16 µM, first compound 0.1 µM
[27] = second compound 3.16 µM, first compound 0.316 µM
[28] = second compound 3.16 µM, first compound 1 µM
[29] = second compound 3.16 µM, first compound 3.16 µM
[30] = second compound 3.16 µM, first compound 10 µM
[31] = second compound 10 µM, first compound 0.0316 µM
[32] = second compound 10 µM, first compound 0.1 µM
[33] = second compound 10 µM, first compound 0.316 µM
[34] = second compound 10 µM, first compound 1 µM
[35] = second compound 10 µM, first compound 3.16 µM
[36] = second compound 10 µM, first compound 10 µM
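Note: spheroids exposed to compounds for 7 days.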

C#Cc1c(F)ccc2cc(O)cc(-c3ncc4c(N5CC6CCC(C5)N6)nc(OCC56CCCN5CC(F)C6)nc4c3F)c12 (stereo unspecified) + COC1C(OC(N)=O)C(O)C(Oc2ccc3c(O)c(NC(=O)c4ccc(O)c(CC=C(C)C)c4)c(=O)oc3c2C)OC1(C)C was tested, and the IC50 (second compound 0.0316 µM) was 2.75 µM, the IC50 (second compound 0.1 µM) was 2.49 µM and the IC50 (second compound 0.316 µM) was 2.38 µM. For the same molecule, the IC50 (second compound 1 µM) was 2.67 µM, the IC50 (second compound 3.16 µM) was 2.58 µM and the IC50 (second compound 10 µM) was 2.97 µM. It also gave a viability, T/C [1] of 104%, a viability, T/C [2] of 101% and a viability, T/C [3] of 88.5%. For the same molecule, the viability, T/C [4] was 76.8%, the viability, T/C [5] was 45.2% and the viability, T/C [6] was 21.7%. It also gave a viability, T/C [7] of 104%, a viability, T/C [8] of 94.3% and a viability, T/C [9] of 93%. The viability, T/C [10] was 72.1%, the viability, T/C [11] was 44% and the viability, T/C [12] was 21.7%. The viability, T/C [13] was 95.7%, the viability, T/C [14] was 107% and the viability, T/C [15] was 88.7%. The viability, T/C [16] was 76.6%, the viability, T/C [17] was 40.9% and the viability, T/C [18] was 22.6%. The viability, T/C [19] was 97.9%, the viability, T/C [20] was 100% and the viability, T/C [21] was 90%. It also gave a viability, T/C [22] of 76.5%, a viability, T/C [23] of 45.2% and a viability, T/C [24] of 20.8%. For the same molecule, the viability, T/C [25] was 94.9%, the viability, T/C [26] was 97.2% and the viability, T/C [27] was 90.3%. The viability, T/C [28] was 67.2%, the viability, T/C [29] was 47.8% and the viability, T/C [30] was 22.3%. For the same molecule, the viability, T/C [31] was 99.4%, the viability, T/C [32] was 92.6% and the viability, T/C [33] was 95.2%. For the same molecule, the viability, T/C [34] was 73.9%, the viability, T/C [35] was 49.4% and the viability, T/C [36] was 21.9%.
C=CC(=O)N1CCN(c2nc(=O)n(-c3c(C)ccnc3C(C)C)c3nc(-c4c(O)cccc4F)c(F)cc23)C(C)C1 (stereo unspecified) + COC1C(OC(N)=O)C(O)C(Oc2ccc3c(O)c(NC(=O)c4ccc(O)c(CC=C(C)C)c4)c(=O)oc3c2C)OC1(C)C showed an IC50 (second compound 0.0316 µM) greater than 10 µM, an IC50 (second compound 0.1 µM) greater than 10 µM and an IC50 (second compound 0.316 µM) greater than 10 µM. For the same molecule, the IC50 (second compound 1 µM) was greater than 10 µM, the IC50 (second compound 3.16 µM) was greater than 10 µM and the IC50 (second compound 10 µM) was greater than 10 µM. The viability, T/C [1] was 104%, the viability, T/C [2] was 97.9% and the viability, T/C [3] was 110%. It also gave a viability, T/C [4] of 113%, a viability, T/C [5] of 114% and a viability, T/C [6] of 91.7%. For the same molecule, the viability, T/C [7] was 109%, the viability, T/C [8] was 91.9% and the viability, T/C [9] was 106%. The viability, T/C [10] was 108%, the viability, T/C [11] was 115% and the viability, T/C [12] was 105%. For the same molecule, the viability, T/C [13] was 107%, the viability, T/C [14] was 115% and the viability, T/C [15] was 104%. For the same molecule, the viability, T/C [16] was 112%, the viability, T/C [17] was 123% and the viability, T/C [18] was 95.1%. It also gave a viability, T/C [19] of 118%, a viability, T/C [20] of 104% and a viability, T/C [21] of 112%. For the same molecule, the viability, T/C [22] was 106%, the viability, T/C [23] was 114% and the viability, T/C [24] was 83.2%. The viability, T/C [25] was 102%, the viability, T/C [26] was 108% and the viability, T/C [27] was 104%. The viability, T/C [28] was 116%, the viability, T/C [29] was 124% and the viability, T/C [30] was 104%. It also gave a viability, T/C [31] of 96%, a viability, T/C [32] of 93.7% and a viability, T/C [33] of 106%. The viability, T/C [34] was 110%, the viability, T/C [35] was 111% and the viability, T/C [36] was 91%.
In the case of CC(C)n1c(=O)n(C)c2cnc3cc(F)c(-c4ccc(OCCCN5CCCCC5)nc4)cc3c21 + COC1C(OC(N)=O)C(O)C(Oc2ccc3c(O)c(NC(=O)c4ccc(O)c(CC=C(C)C)c4)c(=O)oc3c2C)OC1(C)C, the IC50 (second compound 0.0316 µM) is reported as greater than 10 µM, the IC50 (second compound 0.1 µM) is reported as greater than 10 µM and the IC50 (second compound 0.316 µM) is reported as greater than 10 µM. The IC50 (second compound 1 µM) was greater than 10 µM, the IC50 (second compound 3.16 µM) was greater than 10 µM and the IC50 (second compound 10 µM) was greater than 10 µM. It also gave a viability, T/C [1] of 89.6%, a viability, T/C [2] of 89.6% and a viability, T/C [3] of 97.5%. It also gave a viability, T/C [4] of 88.9%, a viability, T/C [5] of 88.3% and a viability, T/C [6] of 84.4%. The viability, T/C [7] was 96.5%, the viability, T/C [8] was 99.4% and the viability, T/C [9] was 100%. For the same molecule, the viability, T/C [10] was 100%, the viability, T/C [11] was 91.1% and the viability, T/C [12] was 105%. The viability, T/C [13] was 99.4%, the viability, T/C [14] was 86.6% and the viability, T/C [15] was 93.5%. It also gave a viability, T/C [16] of 93.7%, a viability, T/C [17] of 91.8% and a viability, T/C [18] of 86.1%. The viability, T/C [19] was 104%, the viability, T/C [20] was 96.5% and the viability, T/C [21] was 104%. For the same molecule, the viability, T/C [22] was 90%, the viability, T/C [23] was 97% and the viability, T/C [24] was 77.8%. For the same molecule, the viability, T/C [25] was 99.5%, the viability, T/C [26] was 92.5% and the viability, T/C [27] was 94.3%. For the same molecule, the viability, T/C [28] was 98%, the viability, T/C [29] was 98.7% and the viability, T/C [30] was 93.2%. The viability, T/C [31] was 100%, the viability, T/C [32] was 94.9% and the viability, T/C [33] was 114%. The viability, T/C [34] was 91.9%, the viability, T/C [35] was 88.8% and the viability, T/C [36] was 93.2%.
